{
  "source": "ChEMBL document CHEMBL4507319",
  "about": "(2021)",
  "key": {"[1]": {"target": "Platelet-derived growth factor receptor alpha (Homo sapiens) (UniProt P16234)", "sequence (P16234 whole entry)": "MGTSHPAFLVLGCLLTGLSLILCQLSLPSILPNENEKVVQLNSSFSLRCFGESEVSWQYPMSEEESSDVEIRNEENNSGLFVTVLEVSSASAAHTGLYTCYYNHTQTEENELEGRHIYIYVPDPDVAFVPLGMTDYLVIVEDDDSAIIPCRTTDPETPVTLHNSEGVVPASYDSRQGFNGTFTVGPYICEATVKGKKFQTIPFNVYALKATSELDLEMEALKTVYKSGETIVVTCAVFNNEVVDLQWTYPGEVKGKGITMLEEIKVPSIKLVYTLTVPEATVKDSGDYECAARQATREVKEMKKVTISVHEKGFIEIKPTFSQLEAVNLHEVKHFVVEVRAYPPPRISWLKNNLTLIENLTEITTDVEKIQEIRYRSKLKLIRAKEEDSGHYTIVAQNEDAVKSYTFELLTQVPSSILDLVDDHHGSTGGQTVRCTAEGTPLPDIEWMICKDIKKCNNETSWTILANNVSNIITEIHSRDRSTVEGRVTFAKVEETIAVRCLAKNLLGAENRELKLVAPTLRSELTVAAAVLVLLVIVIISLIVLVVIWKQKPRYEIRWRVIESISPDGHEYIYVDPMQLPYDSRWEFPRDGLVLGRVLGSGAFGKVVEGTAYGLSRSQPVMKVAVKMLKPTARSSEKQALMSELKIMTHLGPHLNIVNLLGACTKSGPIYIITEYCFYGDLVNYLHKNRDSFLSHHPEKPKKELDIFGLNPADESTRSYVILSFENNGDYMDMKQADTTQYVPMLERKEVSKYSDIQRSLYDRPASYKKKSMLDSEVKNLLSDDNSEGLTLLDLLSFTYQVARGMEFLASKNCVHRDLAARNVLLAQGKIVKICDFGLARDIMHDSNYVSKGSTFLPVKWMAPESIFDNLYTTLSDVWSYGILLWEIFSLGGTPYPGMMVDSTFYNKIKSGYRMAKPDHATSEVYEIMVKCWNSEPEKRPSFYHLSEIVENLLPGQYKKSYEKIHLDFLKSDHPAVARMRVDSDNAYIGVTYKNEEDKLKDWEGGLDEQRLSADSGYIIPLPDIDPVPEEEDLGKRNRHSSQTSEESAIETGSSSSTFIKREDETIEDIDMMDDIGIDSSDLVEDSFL", "test": "PDGFRalpha(h) Eurofins kinase panel", "conditions": "Compound concentration 1.0 uM"}, "[2]": {"target": "Mitogen-activated protein kinase 1 (Homo sapiens) (UniProt P28482)", "sequence (P28482 whole entry)": "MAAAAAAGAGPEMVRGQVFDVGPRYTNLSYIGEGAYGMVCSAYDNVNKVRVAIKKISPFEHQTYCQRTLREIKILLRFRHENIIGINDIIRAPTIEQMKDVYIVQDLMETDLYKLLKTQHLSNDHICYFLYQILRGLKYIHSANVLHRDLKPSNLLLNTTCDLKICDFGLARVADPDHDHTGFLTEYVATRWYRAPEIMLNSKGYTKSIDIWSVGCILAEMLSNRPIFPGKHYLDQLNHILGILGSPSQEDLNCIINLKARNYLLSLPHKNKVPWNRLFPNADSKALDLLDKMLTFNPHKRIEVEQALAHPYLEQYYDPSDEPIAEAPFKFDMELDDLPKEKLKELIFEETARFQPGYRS", "test": "MAPK2(h) Eurofins kinase panel", "conditions": "Compound concentration 1.0 uM"}, "MDA-MB-453": {"system": "MDA-MB-453", "test": "MDA-MB- 453 cell line Proliferation assay", "format": "functional, Homo sapiens", "conditions": "time 3 day"}, "[3]": {"target": "Serine/threonine-protein kinase N2 (Homo sapiens) (UniProt Q16513)", "sequence (Q16513 whole entry, looked up)": "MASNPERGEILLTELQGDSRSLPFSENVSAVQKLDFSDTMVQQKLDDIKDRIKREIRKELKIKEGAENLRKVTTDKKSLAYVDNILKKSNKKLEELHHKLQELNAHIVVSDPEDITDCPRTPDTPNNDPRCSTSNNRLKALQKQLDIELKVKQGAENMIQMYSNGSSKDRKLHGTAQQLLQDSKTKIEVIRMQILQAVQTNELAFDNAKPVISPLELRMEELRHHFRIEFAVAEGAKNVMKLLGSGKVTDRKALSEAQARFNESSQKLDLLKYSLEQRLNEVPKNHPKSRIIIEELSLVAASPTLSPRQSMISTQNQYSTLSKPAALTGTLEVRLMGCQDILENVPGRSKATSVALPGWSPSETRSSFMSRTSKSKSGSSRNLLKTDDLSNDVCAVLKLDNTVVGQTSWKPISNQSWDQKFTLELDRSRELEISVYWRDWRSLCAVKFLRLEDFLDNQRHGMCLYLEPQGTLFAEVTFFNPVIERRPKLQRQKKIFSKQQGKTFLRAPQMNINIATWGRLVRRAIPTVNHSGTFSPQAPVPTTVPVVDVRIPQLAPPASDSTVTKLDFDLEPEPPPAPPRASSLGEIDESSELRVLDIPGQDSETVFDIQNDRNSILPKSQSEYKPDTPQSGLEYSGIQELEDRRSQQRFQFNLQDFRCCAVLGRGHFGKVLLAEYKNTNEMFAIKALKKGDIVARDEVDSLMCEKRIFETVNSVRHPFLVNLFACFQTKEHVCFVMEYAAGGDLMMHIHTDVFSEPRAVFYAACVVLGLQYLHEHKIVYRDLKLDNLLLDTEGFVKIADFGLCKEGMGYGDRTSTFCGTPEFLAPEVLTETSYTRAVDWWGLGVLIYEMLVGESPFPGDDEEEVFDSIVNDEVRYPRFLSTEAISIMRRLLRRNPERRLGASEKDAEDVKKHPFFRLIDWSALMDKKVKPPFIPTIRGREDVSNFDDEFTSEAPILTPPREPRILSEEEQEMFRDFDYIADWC", "test": "PRK2(h) Eurofins kinase panel", "conditions": "Compound concentration 1.0 uM"}, "[4]": {"target": "T1, Ephrin type-B receptor 2 (Homo sapiens) (UniProt P29323)", "T1 sequence (whole entry)": "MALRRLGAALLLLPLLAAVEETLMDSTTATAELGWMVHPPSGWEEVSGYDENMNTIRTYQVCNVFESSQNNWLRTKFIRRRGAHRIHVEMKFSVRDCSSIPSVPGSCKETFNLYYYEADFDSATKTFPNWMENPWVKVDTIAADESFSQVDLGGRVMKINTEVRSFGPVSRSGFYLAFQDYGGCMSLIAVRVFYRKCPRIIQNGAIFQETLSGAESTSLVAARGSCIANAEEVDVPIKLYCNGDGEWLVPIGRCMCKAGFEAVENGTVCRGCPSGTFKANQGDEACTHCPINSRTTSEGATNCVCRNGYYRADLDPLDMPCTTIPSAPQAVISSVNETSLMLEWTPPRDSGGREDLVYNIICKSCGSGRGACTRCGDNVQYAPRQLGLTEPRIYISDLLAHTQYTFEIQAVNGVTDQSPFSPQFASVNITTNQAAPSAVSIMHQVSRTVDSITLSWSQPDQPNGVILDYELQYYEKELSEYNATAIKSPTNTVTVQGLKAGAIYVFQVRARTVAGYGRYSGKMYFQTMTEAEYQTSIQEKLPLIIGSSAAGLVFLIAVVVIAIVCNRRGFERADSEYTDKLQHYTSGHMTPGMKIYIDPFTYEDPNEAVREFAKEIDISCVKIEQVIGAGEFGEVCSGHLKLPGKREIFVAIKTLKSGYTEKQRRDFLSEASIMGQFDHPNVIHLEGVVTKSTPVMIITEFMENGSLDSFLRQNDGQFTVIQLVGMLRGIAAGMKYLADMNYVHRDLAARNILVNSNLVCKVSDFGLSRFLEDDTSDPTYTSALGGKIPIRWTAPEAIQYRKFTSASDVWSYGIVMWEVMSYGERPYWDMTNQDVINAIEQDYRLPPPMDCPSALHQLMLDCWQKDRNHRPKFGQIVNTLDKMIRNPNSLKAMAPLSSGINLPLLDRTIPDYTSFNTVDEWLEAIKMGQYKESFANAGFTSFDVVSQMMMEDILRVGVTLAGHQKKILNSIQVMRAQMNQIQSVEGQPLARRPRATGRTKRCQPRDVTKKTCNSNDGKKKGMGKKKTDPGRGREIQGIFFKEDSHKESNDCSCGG", "test": "EphB2(h) Eurofins kinase panel", "conditions": "Compound concentration 1.0 uM"}, "[5]": {"target": "Eukaryotic translation initiation factor 2-alpha kinase 3 (Homo sapiens) (UniProt Q9NZJ5)", "sequence (Q9NZJ5 whole entry)": "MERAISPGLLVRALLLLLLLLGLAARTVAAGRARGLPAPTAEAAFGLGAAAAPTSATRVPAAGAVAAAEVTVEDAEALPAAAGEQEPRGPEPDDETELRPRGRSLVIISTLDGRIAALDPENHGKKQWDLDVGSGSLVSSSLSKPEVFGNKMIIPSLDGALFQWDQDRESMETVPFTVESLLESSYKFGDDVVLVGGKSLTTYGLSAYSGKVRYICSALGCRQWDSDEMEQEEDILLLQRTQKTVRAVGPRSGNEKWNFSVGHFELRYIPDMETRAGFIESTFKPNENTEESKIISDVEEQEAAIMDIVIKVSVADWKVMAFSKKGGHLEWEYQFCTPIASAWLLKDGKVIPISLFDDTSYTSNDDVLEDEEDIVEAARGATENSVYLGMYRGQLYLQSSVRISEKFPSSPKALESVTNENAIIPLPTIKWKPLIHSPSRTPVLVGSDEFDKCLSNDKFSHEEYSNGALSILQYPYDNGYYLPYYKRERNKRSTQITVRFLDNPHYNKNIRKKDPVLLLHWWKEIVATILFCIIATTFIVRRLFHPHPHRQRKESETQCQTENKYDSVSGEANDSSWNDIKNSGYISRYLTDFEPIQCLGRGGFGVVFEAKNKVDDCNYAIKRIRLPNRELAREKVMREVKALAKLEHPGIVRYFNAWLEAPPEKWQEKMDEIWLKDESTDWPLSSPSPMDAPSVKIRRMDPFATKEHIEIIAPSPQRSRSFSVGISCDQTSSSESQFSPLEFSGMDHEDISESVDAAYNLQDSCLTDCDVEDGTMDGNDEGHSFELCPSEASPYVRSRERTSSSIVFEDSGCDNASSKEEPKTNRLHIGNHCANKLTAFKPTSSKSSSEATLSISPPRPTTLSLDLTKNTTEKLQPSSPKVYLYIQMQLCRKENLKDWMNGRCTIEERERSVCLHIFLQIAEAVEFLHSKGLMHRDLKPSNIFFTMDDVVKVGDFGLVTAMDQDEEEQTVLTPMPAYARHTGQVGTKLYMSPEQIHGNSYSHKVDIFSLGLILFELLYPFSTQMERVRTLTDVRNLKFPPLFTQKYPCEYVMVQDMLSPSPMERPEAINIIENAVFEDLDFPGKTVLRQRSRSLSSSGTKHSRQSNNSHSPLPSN", "test": "PEK(h) Eurofins kinase panel", "conditions": "Compound concentration 1.0 uM"}, "[6]": {"target": "T2, Muscle, skeletal receptor tyrosine-protein kinase (Homo sapiens) (UniProt O15146)", "T2 sequence (whole entry)": "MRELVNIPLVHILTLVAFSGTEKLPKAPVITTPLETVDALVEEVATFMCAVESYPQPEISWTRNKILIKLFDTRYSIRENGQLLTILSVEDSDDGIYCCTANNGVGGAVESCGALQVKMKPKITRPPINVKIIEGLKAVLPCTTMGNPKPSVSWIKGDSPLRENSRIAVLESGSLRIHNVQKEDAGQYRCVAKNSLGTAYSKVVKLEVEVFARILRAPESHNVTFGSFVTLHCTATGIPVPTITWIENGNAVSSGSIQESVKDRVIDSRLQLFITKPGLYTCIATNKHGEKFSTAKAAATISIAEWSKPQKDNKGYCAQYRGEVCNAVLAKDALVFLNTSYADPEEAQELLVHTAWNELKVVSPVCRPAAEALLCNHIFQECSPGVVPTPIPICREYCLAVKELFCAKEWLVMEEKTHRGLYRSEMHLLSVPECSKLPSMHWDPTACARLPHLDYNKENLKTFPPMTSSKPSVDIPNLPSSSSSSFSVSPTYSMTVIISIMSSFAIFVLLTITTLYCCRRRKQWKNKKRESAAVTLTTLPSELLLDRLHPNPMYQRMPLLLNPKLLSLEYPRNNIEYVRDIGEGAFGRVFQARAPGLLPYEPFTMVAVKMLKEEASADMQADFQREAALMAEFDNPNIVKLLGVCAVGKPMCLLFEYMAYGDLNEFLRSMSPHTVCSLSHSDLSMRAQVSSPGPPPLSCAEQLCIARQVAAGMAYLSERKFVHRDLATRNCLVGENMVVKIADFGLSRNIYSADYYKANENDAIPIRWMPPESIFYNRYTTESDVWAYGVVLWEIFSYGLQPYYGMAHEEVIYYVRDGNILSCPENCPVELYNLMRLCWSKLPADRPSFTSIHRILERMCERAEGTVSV", "test": "MuSK(h) Eurofins kinase panel", "conditions": "Compound concentration 1.0 uM"}},
  "data": [
    {"smiles": "CCc1ccccc1C(=O)Nc1n[nH]c2c(C)c(F)c(C3C(C#N)=C(C)N(C)C(C)=C3C#N)cc12", "note": "[BAY-3827]", "values": [
      {"measurement": "% residual kinase activity", "setting": "[1]", "value": 102, "unit": "%"},
      {"measurement": "% residual kinase activity", "setting": "[2]", "value": 102, "unit": "%"},
      {"measurement": "Cell Proliferation IC50", "setting": "MDA-MB-453", "value": 14.6, "unit": "µM"},
      {"measurement": "% residual kinase activity", "setting": "[3]", "value": 93, "unit": "%"},
      {"measurement": "% residual kinase activity", "setting": "[4]", "value": 98, "unit": "%"},
      {"measurement": "% residual kinase activity", "setting": "[5]", "value": 101, "unit": "%"},
      {"measurement": "% residual kinase activity", "setting": "[6]", "value": 91, "unit": "%"}
    ]}
  ]
}
